# According to PMC11508974, “Computational Approach to Identifying New Chemical Entities as Elastase Inhibitors with Potential Antiaging Effects” (International Journal of Molecular Sciences, 2024):
# Target: T1, porcine pancreatic elastase (PPE) (Sus scrofa, UniProt P00772)
# T1 construct: gene CELA1
# Assay: Chromogenic elastase inhibition assay with SANA substrate, p-nitroaniline release
# Type: biochemical
# T1 sequence (P00772 27-266): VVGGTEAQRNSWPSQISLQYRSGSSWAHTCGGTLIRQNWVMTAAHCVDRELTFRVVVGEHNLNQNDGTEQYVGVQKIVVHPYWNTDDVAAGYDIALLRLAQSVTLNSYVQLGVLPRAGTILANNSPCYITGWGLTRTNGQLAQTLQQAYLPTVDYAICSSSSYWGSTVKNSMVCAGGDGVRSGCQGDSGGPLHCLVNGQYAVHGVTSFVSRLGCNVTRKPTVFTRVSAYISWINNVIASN
smiles,measurement,value
"Cc1cc(C)cc(Cn2c(SCC(=O)Nc3ccc(C)cc3Cl)nc3ccccc32)c1 [compound 2, N-(2-chloro-4-methylphenyl)-2-[[1-[(3,5-dimethylphenyl)methyl]-1H-benzimidazol-2-yl]thio]acetamide]",IC50,60.4 ± 1.98 µM
